This is an account of results in BindingDB's records for doi:10.1111/j.1747-0285.2010.01010.x (University of Washington, 2010).

The target in the test is Thymidylate synthase (Homo sapiens, UniProt P04818). As to the kind of experiment: Tritium Release Assay. The settings on record: pH 7.5; 4 °C.
Thymidylate synthase, sequence (P04818 whole entry): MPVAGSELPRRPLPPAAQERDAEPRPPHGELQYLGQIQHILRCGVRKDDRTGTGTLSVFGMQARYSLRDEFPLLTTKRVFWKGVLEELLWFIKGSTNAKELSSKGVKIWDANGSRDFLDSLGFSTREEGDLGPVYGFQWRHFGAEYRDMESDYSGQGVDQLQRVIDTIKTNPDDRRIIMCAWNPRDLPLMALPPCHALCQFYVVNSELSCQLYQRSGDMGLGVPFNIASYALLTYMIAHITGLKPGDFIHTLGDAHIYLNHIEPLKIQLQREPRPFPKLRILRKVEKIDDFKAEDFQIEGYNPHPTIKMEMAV

As usually defined, the IC50 is the concentration needed to halve the response being measured. Read a high IC50 as a need for much substance. In turn, `CCN1C(=O)c2cccc3c(NC(=O)c4cccs4)ccc1c23` [MV1554] gave an IC50 of 160 µM.
What is called Kd is the equilibrium constant for the complex coming apart. A high value points to a looser complex. `Cc1c(C(=O)NCCc2cccs2)nnn1-c1ccccc1` [MV1555] yielded an IC50 of 30 µM and a Kd of 5 µM.
With `O=C(O)c1ccc(/N=C/c2ccc(-c3cccs3)s2)cc1` [MV1556], the midpoint of inhibition, the IC50, lay at 240 µM.
Still for that read-out and setting: in the case of `CC(=NNC(=O)Cc1c(C)[nH]c2ccc(C)cc12)c1cccs1` [MV1561] it was 160 µM.
Turning to `CCc1ccc(/C=N/NC(=O)c2c[nH]c3ccccc23)s1` [MV1565], the IC50 turned out to be 70 µM and the Kd was 1 µM.
`O=C(NCCc1c[nH]c2ccccc12)/C(=C\c1cccs1)NC(=O)c1cccs1` [MV1570] displayed an IC50 of 70 µM and a Kd of 2 µM.
`CC(OC(=O)c1cc2occc2n1C)C(=O)NCc1cccs1` (stereo not given) [MV1574] yielded an IC50 of more than 500 µM.
Molecule `CCOC(=O)c1cc2occc2n1CC(=O)N1CCc2ccccc21` [MV1576] had an IC50 of 140 µM.
Molecule `CCOC(=O)c1cc2oc(C)cc2n1CC#N` [MV1578] had an IC50 of more than 500 µM.
Molecule `Cc1onc(-c2ccccc2)c1C(=O)NCc1cccs1` [MV1581] returned an IC50 of more than 500 µM.
Still for that read-out and setting: to `O=C(NCc1cccs1)c1nc(-c2ccccc2)no1` [MV1586] belongs 115 µM; to `Cc1cc(C(=O)CSc2nnc(N)s2)c(C)n1Cc1ccco1` [MV1588], 115 µM.
